Where two headings read alike, the source gives them in different places. Starred links: 1 amine or outer side, 2 acyl side, 3 side chain; linkers in the order of their positions; H or OH if unused. Non-standard residues stand in square brackets, D forms with d. Residues, ends and D or L forms follow the SMILES beside them. Groups on a side chain read outwards from the residue. *: point of attachment. C18 diacid = O=C(O)CCCCCCCCCCCCCCCCC(=O)*; γGlu = O=C(O)[C@H](CCC(=O)[*:2])N[*:1]; AEEA = NCCOCCOCC(=O)O; Aib = CC(C)(N)C(=O)O
Legend:
human CRF2α receptor = target: T1, human CRF2α receptor (Homo sapiens, UniProt Q13324); test: cAMP agonism at human CRF2 α receptor in TeloHEAC cells (Example 7); assay type: cell-based; details: cAMP HTRF, TeloHEAC cells stably expressing human CRF2 α
T1 construct: expressed in transfected cells; host or cells: TeloHEAC
T1 sequence (Q13324 1-411): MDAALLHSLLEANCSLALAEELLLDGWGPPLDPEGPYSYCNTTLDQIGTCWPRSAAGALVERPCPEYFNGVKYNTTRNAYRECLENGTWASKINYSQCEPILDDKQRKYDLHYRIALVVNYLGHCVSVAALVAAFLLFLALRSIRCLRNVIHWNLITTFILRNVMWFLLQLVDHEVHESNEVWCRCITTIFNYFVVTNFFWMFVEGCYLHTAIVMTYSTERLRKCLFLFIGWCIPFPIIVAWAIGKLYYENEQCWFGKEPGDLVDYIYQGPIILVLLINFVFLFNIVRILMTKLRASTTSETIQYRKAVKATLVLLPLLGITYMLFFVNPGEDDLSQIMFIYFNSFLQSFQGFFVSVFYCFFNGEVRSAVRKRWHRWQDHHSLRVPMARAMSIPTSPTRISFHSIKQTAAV
Summary of the method: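 Percent activation was referenced to 1000 nM UCN2 (100%), and EC50 values taken as concentrations giving half of maximal response. The read-out was a homogeneous time-resolved fluorescence cAMP kit, fluorescence ratio 665/620 nm. Thawed cells (2000/well) saw compound for 30 min at RT in buffer with 2 mM IBMX and 0%/0.1% HSA.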

rat CRF2R α receptor = test: cAMP agonism at rat CRF2R α receptor in A7R5 rat aortic smooth muscle cells (Example 8); assay type: cell-based; details: cAMP HTRF, A7R5 rat aortic smooth muscle cell line, 0% HSA
Summary of the method: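 Thawed cryopreserved A7R5 cells in HBSS/20 mM HEPES (0 or 0.1% HSA) with 2 mM IBMX, 2000 cells/well, were exposed to compound for 30 min at room temperature. cAMP was read by HTRF (665/620 nm ratio) after 1 h with lysis reagents. Activity was normalised to 1000 nM urocortin 2 as 100%, and EC50 was taken as the concentration giving 50% of maximal activation.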

CRF1R receptor = target: T2, CRF1R receptor (Homo sapiens, UniProt P34998); test: cAMP activity at anti-target CRF1R, CRF1R-overexpression CHO cell line (Example 9); assay type: cell-based; details: CRF1R-overexpression CHO cell line
T2 construct: host or cells: CHO-K1 clone 2
T2 sequence (P34998 24-415): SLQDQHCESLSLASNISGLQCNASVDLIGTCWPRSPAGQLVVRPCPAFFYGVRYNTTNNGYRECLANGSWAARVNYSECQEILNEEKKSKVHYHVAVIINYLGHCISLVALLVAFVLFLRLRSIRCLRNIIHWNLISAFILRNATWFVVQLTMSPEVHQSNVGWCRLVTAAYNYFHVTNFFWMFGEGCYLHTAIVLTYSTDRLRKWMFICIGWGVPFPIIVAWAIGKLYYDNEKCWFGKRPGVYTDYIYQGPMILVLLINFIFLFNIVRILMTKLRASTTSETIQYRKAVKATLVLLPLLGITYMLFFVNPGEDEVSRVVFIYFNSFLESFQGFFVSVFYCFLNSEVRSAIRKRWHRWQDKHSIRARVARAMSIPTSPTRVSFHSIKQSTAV
Summary of the method: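 cAMP accumulation was read by HTRF after 30 min at room temperature of compound treatment. Cells were cryopreserved CHO cells overexpressing CRF1R, plated at 2000/well in IBMX (2 mM)-containing HBSS/HEPES buffer with 0 or 0.1% HSA. Activity was normalized to 1000 nM UCN2 as 100%.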

[1] = Solubility in buffer systems by UPLC-UV (Example 13); assay type: physicochemical; details: pH 7.4, Solubility in Buffer C [mg/ml]
Summary of the method: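 The supernatant was diluted 1:10 and quantified by UPLC-UV peak area against a reference standard curve, correcting for sequence-based extinction coefficients.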

[2] = Pharmacokinetic properties in rats, i.v. or s.c. (Example 16); assay type: in vivo, SD rat; details: male, plasma, Rat; for AUC(0-t) / Cmax / half-life: Sprague-Dawley (SD)
Experimental: The pharmacokinetic properties of exemplary peptides SEQ ID NO: 35 and SEQ ID NO: 24 were assessed in mice and rats.
The test compound was administered in a suitable buffer system (PBS buffer solution at pH 7.4, or DPBS solution) at concentrations of 0.05, 0.1, 0.5 or 1 mg/ml depending on the dose, species and administration volume. Female C57BI/6 mice and male SD rate were dosed 0.1 mg/kg or 0.3 mg/kg intravenously or subcutaneously. The animals were sacrificed, and blood samples were collected after 0.08, 0.25, 0.5, 1, 2, 4, 8, 24, 32, and 48 hours post-intravenous administration and 0.25, 0.5, 1, 2, 4, 8, 24, 32, and 48 hours post-subcutaneous administration, respectively. Plasma samples were analysed after protein precipitation via liquid chromatography mass spectrometry (LC/MS). Pharmacokinetic parameters and half-life were calculated using Phoenix-WinNonlin 8.1 using a non-compartmental model and linear trapezoidal interpolation calculation.

[3] = Chemical stability, purity loss by UPLC-UV after 28 days at 40° C. vs 5° C., pH 4.5 acetate buffer (Example 12); assay type: physicochemical; details: 28 days 40° C. vs 5° C.; pH 4.5, 20 mM acetate buffer; 300 μM
Experimental: The chemical stability of the compounds was assessed by storing the compounds under various conditions and then determining the loss of purity by UPLC-UV.
Prior to measuring the chemical stability of a batch of test compound, the purity of the compound was determined through UPLC/MS. For stability testing the target concentration was 300 μM pure compound. Therefore, solutions from solid samples were prepared in a pH 4.5, 20 mM acetate buffer system with a concentration of 300 μM compound based on the previously determined % purity:
At the starting point, UPLC-UV was performed by injection of 2 μl of the undiluted sample. Aliquots were then stored for 28 days at temperatures of 5 and 40° C. […] Then 2 μl samples of the undiluted supernatant were analysed with UPLC-UV. The chemical stability was calculated by the equation: [(purity after 28 days at 5° C.)−(purity after 28 days at 40° C.)]/(purity after 28 days at 5° C.)]×100%. The purity was calculated as: [(peak area compound)/(total peak area)]×100%.

[4] = 0% HSA, read-out: EC50 [nM], 0% HSA

| EC50 (human CRF2α receptor; [4]) | EC50 (rat CRF2R α receptor) | EC50 (CRF1R receptor; 0% HSA) | Emax (CRF1R receptor; read-out: Emax (%)) | solubility at 1 h [1] | clearance ([2]; SD, iv, 0.1 mg/kg i.v., read-out: CI (converted)) | bioavailability ([2]; SD, sc, 0.3 mg/kg s.c.) | AUC(0-t) ([2]; iv, 0.1 mg/kg i.v.) | Cmax ([2]; iv, 0.1 mg/kg i.v.) | half-life ([2]; iv, 0.1 mg/kg i.v.) | AUC(0-t) ([2]; sc, 0.3 mg/kg s.c.) | Cmax ([2]; sc, 0.3 mg/kg s.c.) | half-life ([2]; sc, 0.3 mg/kg s.c.) | EC50 (human CRF2α receptor; 0.1% HSA, read-out: EC50 [nM], 0.1% HSA) | Relative purity loss [%] [3] | Structure (SMILES) |
| --- | --- | --- | --- | --- | --- | --- | --- | --- | --- | --- | --- | --- | --- | --- | --- |
| 6.95 nM | 4.94 nM | > 1000 nM | 1.48% | > 10.1 mg/mL | 0.43 mL/min/kg | 24% | 3790 ng·h/mL | 1480 ng/mL | 4.81 h | 2610 ng·h/mL | 171 ng/mL | 5.51 h | – | – | CC[C@H](C)[C@H](N)C(=O)N[C@H](C(=O)N[C@@H](CC(C)C)C(=O)N[C@@H](CO)C(=O)N[C@@H](CC(C)C)C(=O)N[C@@H](CC(=O)O)C(=O)N[C@@H](C(=O)N1CCC[C@H]1C(=O)N[C@H](C(=O)N[C@@H](CCCCN)C(=O)N[C@@H](CC(C)C)C(=O)N[C@@H](CCCCNC(=O)COCCOCCNC(=O)COCCOCCNC(=O)CC[C@H](NC(=O)CCCCCCCCCCCCCCCCC(=O)O)C(=O)O)C(=O)N[C@@H](CCC(N)=O)C(=O)N[C@@H](CCCCN)C(=O)N[C@@H](CC(C)C)C(=O)N[C@@H](CC(C)C)C(=O)N[C@@H](CCCCN)C(=O)N[C@@H](CCC(N)=O)C(=O)N[C@@H](CCC(=O)O)C(=O)N[C@@H](CCCNC(=N)N)C(=O)N[C@@H](CCC(N)=O)C(=O)N[C@@H](CCCNC(=N)N)C(=O)N[C@@H](CCCCN)C(=O)N[C@@H](CCC(=O)O)C(=O)N[C@@H](CCCNC(=N)N)C(=O)N[C@@H](CCC(=O)O)C(=O)N[C@@H](CCC(N)=O)C(=O)N[C@@H](C)C(=O)N[C@@H](CCC(=O)O)C(=O)N[C@@H](CCCCN)C(=O)N[C@@H](CC(N)=O)C(=O)N[C@@H](CCCCN)C(=O)N[C@@H](CCCNC(=N)N)C(=O)N[C@H](C(=O)N[C@@H](CC(C)C)C(=O)N[C@@H](CCC(=O)O)C(=O)N[C@@H](CCCNC(=N)N)C(=O)N[C@H](C(N)=O)C(C)C)[C@@H](C)CC)[C@@H](C)O)C(C)C)C(C)C [compound 24] (H-IVLSLD[dV]PTKLK([AEEA-AEEA-γGlu-C18 diacid])QKLLKQERQRKEREQAEKNKRILERV-NH2; N-terminus assumed) |
| 0.04 nM | 0.1 nM | – | – | – | – | – | – | – | – | – | – | – | 1.27 nM | 4.30% | CC[C@H](C)[C@H](N)C(=O)N[C@H](C(=O)N[C@@H](CC(C)C)C(=O)N[C@@H](CO)C(=O)N[C@@H](CC(C)C)C(=O)N[C@@H](CC(=O)O)C(=O)N[C@@H](C(=O)N1CCC[C@H]1C(=O)N[C@H](C(=O)N[C@@H](CCCCN)C(=O)N[C@@H](CC(C)C)C(=O)N[C@@H](CCCCNC(=O)COCCOCCNC(=O)COCCOCCNC(=O)CC[C@H](NC(=O)CCCCCCCCCCCCCCCCC(=O)O)C(=O)O)C(=O)N[C@@H](CCC(N)=O)C(=O)N[C@H](C(=O)N[C@@H](CC(C)C)C(=O)N[C@@H](CC(C)C)C(=O)N[C@@H](CCC(=O)O)C(=O)N[C@@H](CCC(N)=O)C(=O)N[C@@H](C)C(=O)N[C@@H](CCCNC(=N)N)C(=O)N[C@@H](CCC(N)=O)C(=O)N[C@@H](CCCCN)C(=O)NC(C)(C)C(=O)N[C@@H](CCC(N)=O)C(=O)N[C@@H](CCCNC(=N)N)C(=O)N[C@@H](C)C(=O)N[C@@H](CCC(N)=O)C(=O)N[C@@H](C)C(=O)N[C@@H](CCC(=O)O)C(=O)N[C@@H](CCCCN)C(=O)N[C@@H](CC(N)=O)C(=O)N[C@@H](CCCCN)C(=O)N[C@@H](CCCNC(=N)N)C(=O)N[C@H](C(=O)N[C@@H](CC(C)C)C(=O)N[C@@H](CCC(=O)O)C(=O)N[C@@H](CCCNC(=N)N)C(=O)N[C@H](C(N)=O)C(C)C)[C@@H](C)CC)[C@@H](C)CC)[C@@H](C)CC)C(C)C)C(C)C [compound 140] (H-IVLSLD[dV]PIKLK([AEEA-AEEA-γGlu-C18 diacid])QILLEQARQK[Aib]QRAQAEKNKRILERV-NH2; N-terminus assumed) |

— patent publication US12679878B2, “CRF2 receptor agonists and their use in therapy” (SANOFI, priority 2020, dated 2026)
